Laboratory results as given in ChEMBL document CHEMBL4251692, “Dual GSK-3β/AChE Inhibitors as a New Strategy for Multitargeting Anti-Alzheimer's Disease Drug Discovery” (ACS Med Chem Lett, 2018).
The source made the active and inactive calls. The rule behind the calls is not given here.

Target: Cholinesterase (Homo sapiens, UniProt P06276)
Experiment: Inhibition of human BuChE using butyrylthiocholine iodide as substrate incubated for 20 mins followed by substrate addition measured after 2 mins by Ellman's method
Conditions: not given

Chain of Cholinesterase (Homo sapiens, UniProt P06276) (P06276 whole entry): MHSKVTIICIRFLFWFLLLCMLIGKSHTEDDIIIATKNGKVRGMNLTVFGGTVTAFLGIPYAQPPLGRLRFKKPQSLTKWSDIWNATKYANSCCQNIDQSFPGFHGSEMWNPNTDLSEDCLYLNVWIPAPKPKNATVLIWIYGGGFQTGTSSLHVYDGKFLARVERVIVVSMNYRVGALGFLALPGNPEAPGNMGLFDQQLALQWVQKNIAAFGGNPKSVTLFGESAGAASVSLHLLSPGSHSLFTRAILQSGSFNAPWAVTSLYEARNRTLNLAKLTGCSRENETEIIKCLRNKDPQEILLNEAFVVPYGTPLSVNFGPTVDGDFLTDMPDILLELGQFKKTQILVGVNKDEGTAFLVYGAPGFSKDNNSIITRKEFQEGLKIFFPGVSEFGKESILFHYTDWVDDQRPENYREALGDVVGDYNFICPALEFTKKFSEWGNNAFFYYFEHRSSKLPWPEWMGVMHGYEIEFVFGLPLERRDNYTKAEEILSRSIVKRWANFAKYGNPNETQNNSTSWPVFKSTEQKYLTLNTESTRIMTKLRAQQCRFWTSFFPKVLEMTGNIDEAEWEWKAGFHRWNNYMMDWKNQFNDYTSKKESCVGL

Q: How did the IC50 turn out when `COC(=O)c1sc(-c2ccnc(NC(=O)C3CC3)c2)nc1OCCNc1c2c(nc3ccccc13)CCCC2` was run?
A: 28 nM

Q: `O=C(O)c1sc(-c2ccnc(NC(=O)C3CC3)c2)nc1OCCNc1c2c(nc3ccccc13)CCCC2` was tested. Which IC50 did it give?
A: 450 nM

Q: How did the IC50 turn out when `NC(=O)c1sc(-c2ccnc(NC(=O)C3CC3)c2)nc1OCCNc1c2c(nc3ccccc13)CCCC2` was run?
A: 150 nM

Q: `CCOC(=O)c1sc(-c2ccnc(NC(=O)C3CC3)c2)nc1OCCNc1c2c(nc3ccccc13)CCCC2` was tested. Which IC50 did it give?
A: 610 nM

Q: `COc1nc(-c2ccnc(NC(=O)C3CC3)c2)sc1C(=O)NCCCCCCNc1c2c(nc3ccccc13)CCCC2` was tested. Which IC50 did it give?
A: 100 nM

Q: How did the IC50 turn out when `COc1nc(-c2ccnc(NC(=O)C3CC3)c2)sc1C(=O)NCCNc1c2c(nc3ccccc13)CCCC2` was run?
A: 51 nM

Q: `COc1nc(-c2ccnc(NC(=O)C3CC3)c2)sc1C(=O)NCCCNc1c2c(nc3ccccc13)CCCC2` was tested. Which IC50 did it give?
A: 260 nM

Organism: Homo sapiens
Experiment: Selectivity index, ratio of IC50 for human AChE to IC50 for human BuChE
Conditions: not given

Q: For `COC(=O)c1sc(-c2ccnc(NC(=O)C3CC3)c2)nc1OCCNc1c2c(nc3ccccc13)CCCC2`, which Ratio IC50 is on record?
A: 4.6

Target: T1, Acetylcholinesterase (Homo sapiens, UniProt P22303)
Experiment: Mixed/non-competitive inhibition of human AChE using varying levels of acetylthiocholine iodide as substrate at 1 to 20 nM incubated for 20 mins by Lineweaver-Burk plot analysis
Conditions: not given

T1 sequence (P22303 whole entry): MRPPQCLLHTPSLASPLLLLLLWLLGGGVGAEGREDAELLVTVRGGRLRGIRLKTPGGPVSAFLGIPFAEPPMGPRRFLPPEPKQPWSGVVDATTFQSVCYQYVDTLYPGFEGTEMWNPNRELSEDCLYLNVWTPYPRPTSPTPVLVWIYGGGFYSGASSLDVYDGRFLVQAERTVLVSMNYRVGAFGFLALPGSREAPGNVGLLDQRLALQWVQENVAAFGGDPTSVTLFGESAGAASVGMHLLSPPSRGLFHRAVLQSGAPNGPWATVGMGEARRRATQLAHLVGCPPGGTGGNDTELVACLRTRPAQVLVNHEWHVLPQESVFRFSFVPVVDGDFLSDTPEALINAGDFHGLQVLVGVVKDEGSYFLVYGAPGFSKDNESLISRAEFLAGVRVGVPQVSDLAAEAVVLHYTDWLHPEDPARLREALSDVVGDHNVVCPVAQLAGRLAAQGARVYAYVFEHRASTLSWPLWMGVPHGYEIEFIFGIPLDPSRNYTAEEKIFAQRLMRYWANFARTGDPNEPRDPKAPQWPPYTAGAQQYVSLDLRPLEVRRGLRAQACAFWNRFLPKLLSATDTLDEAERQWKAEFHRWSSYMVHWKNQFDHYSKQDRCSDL

Q: Which inhibition does the source give for `COc1nc(-c2ccnc(NC(=O)C3CC3)c2)sc1C(=O)NCCCNc1c2c(nc3ccccc13)CCCC2` here?
A: Active

System: Mus musculus
Experiment: Cognition enhancing effect in scopolamine-induced ICR mouse assessed as decrease in distance to target at 15 mg/kg, po administered 30 mins prior to scopolamine injection for 10 consecutive days followed by testing on day 11 post 30 mins scopolamine treatment by Morris water maze test
Assay type: functional, organism-based
Conditions: not given

Q: `COC(=O)c1sc(-c2ccnc(NC(=O)C3CC3)c2)nc1OCCNc1c2c(nc3ccccc13)CCCC2` was tested. Which Activity did it give?
A: Active

Q: How did the Activity turn out when `COc1nc(-c2ccnc(NC(=O)C3CC3)c2)sc1C(=O)NCCCCCCNc1c2c(nc3ccccc13)CCCC2` was run?
A: Active

Q: With `COc1nc(-c2ccnc(NC(=O)C3CC3)c2)sc1C(=O)NCCCNc1c2c(nc3ccccc13)CCCC2` as the compound, how does the Activity read?
A: Active

Target: Glycogen synthase kinase-3 beta (Homo sapiens, UniProt P49841)
Experiment: Inhibition of recombinant human full length N-terminal GST-tagged GSK-3beta expressed in Sf9 insect cells using prephosphorylated polypeptide as substrate after 30 mins by kinase-Glo reagent based luminescence assay
Conditions: not given

Chain of Glycogen synthase kinase-3 beta (P49841 whole entry): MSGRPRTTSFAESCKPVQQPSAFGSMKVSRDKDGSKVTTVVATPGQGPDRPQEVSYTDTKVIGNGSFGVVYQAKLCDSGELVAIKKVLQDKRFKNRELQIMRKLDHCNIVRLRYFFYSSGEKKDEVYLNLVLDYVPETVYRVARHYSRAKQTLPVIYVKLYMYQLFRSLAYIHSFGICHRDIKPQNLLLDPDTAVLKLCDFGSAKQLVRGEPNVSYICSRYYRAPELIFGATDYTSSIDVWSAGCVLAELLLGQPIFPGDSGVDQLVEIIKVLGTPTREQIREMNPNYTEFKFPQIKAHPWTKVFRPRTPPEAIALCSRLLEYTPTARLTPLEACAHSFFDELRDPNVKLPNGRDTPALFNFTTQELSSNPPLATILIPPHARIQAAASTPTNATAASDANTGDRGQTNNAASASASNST

Q: How did the IC50 turn out when `COC(=O)c1sc(-c2ccnc(NC(=O)C3CC3)c2)nc1OCCNc1c2c(nc3ccccc13)CCCC2` was run?
A: 99 nM

Q: How did the IC50 turn out when `COc1ccc2nc3c(c(NCCCNC(=O)c4sc(-c5ccnc(NC(=O)C6CC6)c5)nc4OC)c2c1)CCCC3` was run?
A: 65 nM

Q: `O=C(O)c1sc(-c2ccnc(NC(=O)C3CC3)c2)nc1OCCNc1c2c(nc3ccccc13)CCCC2` was tested. Which IC50 did it give?
A: 270 nM

Q: With `NC(=O)c1sc(-c2ccnc(NC(=O)C3CC3)c2)nc1OCCNc1c2c(nc3ccccc13)CCCC2` as the compound, how does the IC50 read?
A: 34 nM

Q: `COc1nc(-c2ccnc(NC(=O)C3CC3)c2)sc1C(=O)NCCNc1c2c(nc3cc(Cl)ccc13)CCCC2` was tested. Which IC50 did it give?
A: 63 nM

Q: For `CCOC(=O)c1sc(-c2ccnc(NC(=O)C3CC3)c2)nc1OCCNc1c2c(nc3ccccc13)CCCC2`, which IC50 is on record?
A: 180 nM

Q: Which IC50 does the source give for `COc1nc(-c2ccnc(NC(=O)C3CC3)c2)sc1C(=O)NCCCCCCNc1c2c(nc3ccccc13)CCCC2` here?
A: 18 nM

Q: `COc1nc(-c2ccnc(NC(=O)C3CC3)c2)sc1C(=O)NCCNc1c2c(nc3ccccc13)CCCC2` was tested. Which IC50 did it give?
A: 68 nM

Q: Which IC50 does the source give for `COc1nc(-c2ccnc(NC(=O)C3CC3)c2)sc1C(=O)NCCCNc1c2c(nc3cc(Cl)ccc13)CCCC2` here?
A: 98 nM

Q: Which IC50 does the source give for `COc1ccc2nc3c(c(NCCNC(=O)c4sc(-c5ccnc(NC(=O)C6CC6)c5)nc4OC)c2c1)CCCC3` here?
A: 83 nM

Q: `COc1nc(-c2ccnc(NC(=O)C3CC3)c2)sc1C(=O)NCCCNc1c2c(nc3ccccc13)CCCC2` was tested. Which IC50 did it give?
A: 66 nM

System: N2a
Experiment: Effect on total tau protein level in mouse N2A cells at 10 to 30 uM after 6 hrs by Western blot analysis
Assay type: cell-based
Conditions: not given

Q: With `COc1nc(-c2ccnc(NC(=O)C3CC3)c2)sc1C(=O)NCCCNc1c2c(nc3ccccc13)CCCC2` as the compound, how does the Activity read?
A: Non-Toxic

Target: Glycogen synthase kinase-3 beta (Mus musculus) (UniProt Q9WV60)
Experiment: Inhibition of GSK-3beta in mouse N2A cells assessed as reduction in tau hyperphosphorylation at Ser396 residues at 10 uM after 6 hrs by Western blot analysis
Assay type: cell-based
Conditions: not given

Chain of Glycogen synthase kinase-3 beta (Mus musculus) (Q9WV60 whole entry, looked up): as the sequence (P49841 whole entry) above, with T390P, T392A, A400T, T402A counted along it

Q: With `COc1nc(-c2ccnc(NC(=O)C3CC3)c2)sc1C(=O)NCCCNc1c2c(nc3ccccc13)CCCC2` as the compound, how does the inhibition read?
A: Active

System: SH-SY5Y
Experiment: Cytotoxicity against human SH-SY5Y cells assessed as reduction in cell viability after 48 hrs by MTT assay
Assay type: cell-based
Conditions: not given

Q: How did the IC50 turn out when `COC(=O)c1sc(-c2ccnc(NC(=O)C3CC3)c2)nc1OCCNc1c2c(nc3ccccc13)CCCC2` was run?
A: 13000 nM

Q: With `COc1ccc2nc3c(c(NCCCNC(=O)c4sc(-c5ccnc(NC(=O)C6CC6)c5)nc4OC)c2c1)CCCC3` as the compound, how does the IC50 read?
A: 2900 nM

Q: `O=C(O)c1sc(-c2ccnc(NC(=O)C3CC3)c2)nc1OCCNc1c2c(nc3ccccc13)CCCC2` was tested. Which IC50 did it give?
A: 21000 nM

Q: With `NC(=O)c1sc(-c2ccnc(NC(=O)C3CC3)c2)nc1OCCNc1c2c(nc3ccccc13)CCCC2` as the compound, how does the IC50 read?
A: 19000 nM

Q: For `COc1nc(-c2ccnc(NC(=O)C3CC3)c2)sc1C(=O)NCCNc1c2c(nc3cc(Cl)ccc13)CCCC2`, which IC50 is on record?
A: 2300 nM

Q: Which IC50 does the source give for `CCOC(=O)c1sc(-c2ccnc(NC(=O)C3CC3)c2)nc1OCCNc1c2c(nc3ccccc13)CCCC2` here?
A: 7100 nM

Q: Which IC50 does the source give for `COc1nc(-c2ccnc(NC(=O)C3CC3)c2)sc1C(=O)NCCCCCCNc1c2c(nc3ccccc13)CCCC2` here?
A: 30000 nM

Q: How did the IC50 turn out when `COc1nc(-c2ccnc(NC(=O)C3CC3)c2)sc1C(=O)NCCNc1c2c(nc3ccccc13)CCCC2` was run?
A: 6300 nM

Q: For `COc1nc(-c2ccnc(NC(=O)C3CC3)c2)sc1C(=O)NCCCNc1c2c(nc3cc(Cl)ccc13)CCCC2`, which IC50 is on record?
A: 3100 nM

Q: With `COc1ccc2nc3c(c(NCCNC(=O)c4sc(-c5ccnc(NC(=O)C6CC6)c5)nc4OC)c2c1)CCCC3` as the compound, how does the IC50 read?
A: 8900 nM

Q: `COc1nc(-c2ccnc(NC(=O)C3CC3)c2)sc1C(=O)NCCCNc1c2c(nc3ccccc13)CCCC2` was tested. Which IC50 did it give?
A: 18000 nM

Target: T1, Acetylcholinesterase
Experiment: Inhibition of human AChE using acetylthiocholine iodide as substrate incubated for 20 mins followed by substrate addition measured after 2 mins by Ellman's method
Conditions: not given

Q: With `COC(=O)c1sc(-c2ccnc(NC(=O)C3CC3)c2)nc1OCCNc1c2c(nc3ccccc13)CCCC2` as the compound, how does the IC50 read?
A: 130 nM

Q: For `COc1ccc2nc3c(c(NCCCNC(=O)c4sc(-c5ccnc(NC(=O)C6CC6)c5)nc4OC)c2c1)CCCC3`, which IC50 is on record?
A: 38 nM

Q: With `O=C(O)c1sc(-c2ccnc(NC(=O)C3CC3)c2)nc1OCCNc1c2c(nc3ccccc13)CCCC2` as the compound, how does the IC50 read?
A: 580 nM

Q: For `NC(=O)c1sc(-c2ccnc(NC(=O)C3CC3)c2)nc1OCCNc1c2c(nc3ccccc13)CCCC2`, which IC50 is on record?
A: 300 nM

Q: How did the IC50 turn out when `COc1nc(-c2ccnc(NC(=O)C3CC3)c2)sc1C(=O)NCCNc1c2c(nc3cc(Cl)ccc13)CCCC2` was run?
A: 2.1 nM

Q: With `CCOC(=O)c1sc(-c2ccnc(NC(=O)C3CC3)c2)nc1OCCNc1c2c(nc3ccccc13)CCCC2` as the compound, how does the IC50 read?
A: 310 nM

Q: For `COc1nc(-c2ccnc(NC(=O)C3CC3)c2)sc1C(=O)NCCCCCCNc1c2c(nc3ccccc13)CCCC2`, which IC50 is on record?
A: 22 nM

Q: `COc1nc(-c2ccnc(NC(=O)C3CC3)c2)sc1C(=O)NCCNc1c2c(nc3ccccc13)CCCC2` was tested. Which IC50 did it give?
A: 6.3 nM

Q: How did the IC50 turn out when `COc1nc(-c2ccnc(NC(=O)C3CC3)c2)sc1C(=O)NCCCNc1c2c(nc3cc(Cl)ccc13)CCCC2` was run?
A: 3.6 nM

Q: With `COc1ccc2nc3c(c(NCCNC(=O)c4sc(-c5ccnc(NC(=O)C6CC6)c5)nc4OC)c2c1)CCCC3` as the compound, how does the IC50 read?
A: 23 nM

Q: With `COc1nc(-c2ccnc(NC(=O)C3CC3)c2)sc1C(=O)NCCCNc1c2c(nc3ccccc13)CCCC2` as the compound, how does the IC50 read?
A: 6.4 nM

Target: Cholinesterase (Equus caballus, UniProt P81908)
Experiment: Inhibition of horse serum BuChE using butyrylthiocholine iodide as substrate incubated for 5 mins followed by substrate addition measured after 2 mins by Ellman's method
Conditions: not given

Chain of Cholinesterase (Equus caballus, UniProt P81908) (P81908 whole entry): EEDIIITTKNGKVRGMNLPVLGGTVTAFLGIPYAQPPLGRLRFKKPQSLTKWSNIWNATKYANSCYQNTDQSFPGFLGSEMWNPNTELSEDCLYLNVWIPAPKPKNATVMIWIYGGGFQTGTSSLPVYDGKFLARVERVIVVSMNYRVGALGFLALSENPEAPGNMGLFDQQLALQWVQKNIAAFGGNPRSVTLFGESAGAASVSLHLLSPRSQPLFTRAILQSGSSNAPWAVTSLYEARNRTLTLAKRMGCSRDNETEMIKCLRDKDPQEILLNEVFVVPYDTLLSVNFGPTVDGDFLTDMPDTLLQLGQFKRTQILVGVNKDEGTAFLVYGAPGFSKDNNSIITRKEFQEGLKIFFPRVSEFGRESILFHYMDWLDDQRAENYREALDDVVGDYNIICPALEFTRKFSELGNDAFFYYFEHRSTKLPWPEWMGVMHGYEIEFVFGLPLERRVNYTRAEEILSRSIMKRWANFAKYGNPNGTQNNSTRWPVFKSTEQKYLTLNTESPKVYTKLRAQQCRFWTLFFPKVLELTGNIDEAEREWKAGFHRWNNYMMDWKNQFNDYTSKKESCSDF

Q: Which IC50 does the source give for `COc1ccc2nc3c(c(NCCCNC(=O)c4sc(-c5ccnc(NC(=O)C6CC6)c5)nc4OC)c2c1)CCCC3` here?
A: 2300 nM

Q: How did the IC50 turn out when `COc1nc(-c2ccnc(NC(=O)C3CC3)c2)sc1C(=O)NCCNc1c2c(nc3cc(Cl)ccc13)CCCC2` was run?
A: 410 nM

Q: How did the IC50 turn out when `COc1nc(-c2ccnc(NC(=O)C3CC3)c2)sc1C(=O)NCCCNc1c2c(nc3cc(Cl)ccc13)CCCC2` was run?
A: 290 nM

Q: Which IC50 does the source give for `COc1ccc2nc3c(c(NCCNC(=O)c4sc(-c5ccnc(NC(=O)C6CC6)c5)nc4OC)c2c1)CCCC3` here?
A: 2100 nM

System: HepG2
Experiment: Cytotoxicity against human HepG2 cells assessed as reduction in cell viability after 24 hrs by MTT assay
Assay type: cell-based
Conditions: HepG2, 24 h

Q: For `COc1nc(-c2ccnc(NC(=O)C3CC3)c2)sc1C(=O)NCCCNc1c2c(nc3ccccc13)CCCC2`, which IC50 is on record?
A: 35000 nM
